Assays:
ovine COX-1 = biological target: T1, ovine COX-1 (Ovis aries, UniProt P05979); experiment: biochemical
T1 sequence (P05979 25-600): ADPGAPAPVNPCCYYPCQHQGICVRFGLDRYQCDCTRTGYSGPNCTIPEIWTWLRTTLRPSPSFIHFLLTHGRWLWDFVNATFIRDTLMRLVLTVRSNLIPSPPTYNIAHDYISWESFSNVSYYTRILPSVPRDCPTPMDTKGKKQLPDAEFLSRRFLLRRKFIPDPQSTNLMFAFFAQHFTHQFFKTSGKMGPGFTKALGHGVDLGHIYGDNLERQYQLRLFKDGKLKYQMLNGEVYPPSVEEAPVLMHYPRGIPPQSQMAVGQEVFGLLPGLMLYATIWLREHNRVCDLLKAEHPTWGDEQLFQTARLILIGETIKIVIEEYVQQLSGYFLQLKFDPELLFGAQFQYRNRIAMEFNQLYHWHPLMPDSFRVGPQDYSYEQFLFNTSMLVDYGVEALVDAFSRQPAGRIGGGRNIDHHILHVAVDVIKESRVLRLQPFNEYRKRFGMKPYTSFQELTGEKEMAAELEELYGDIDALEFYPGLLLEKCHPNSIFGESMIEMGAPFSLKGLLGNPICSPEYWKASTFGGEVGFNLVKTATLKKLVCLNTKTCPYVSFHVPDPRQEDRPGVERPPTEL
Procedure: The ovine COX-1 and COX-2 activities and the measurement of the prostaglandin products synthesized were performed using the COX Inhibitor Screening Assay (Cayman Chemical, Ann Arbor, Mich., which also contained the Prostaglandin Screening EIA Kit, used for prostaglandin quantification). The test compounds were dissolved at 50 times the highest final reaction concentration in DMSO or any other suitable solvent as stock solutions. These stock solutions were then diluted in the same solvent. Eight glass test tubes (13×100 mm) were placed in a 37° C. water bath. To each test tube was added 950 μL of reaction buffer (0.1 M Tris-HCl, pH 8.0, containing 5 mM EDTA, and 2 mM phenol), 10 μL of 100 µM heme solution, and 10 μL (5 units) of either ovine COX-1 or COX-2 and the resulting mixture was incubated with the enzyme for 2 minutes. Twenty μL of the solvent was added to one tube (100% initial activity or solvent control) and 20 μL of each dilution of the test compound was added to one tube each. Each tube was vortexed immediately after the addition. The enzyme was incubated with the inhibitor for 3.5 minutes at 37° C. The enzymatic reaction was then initiated by the addition of 10 μL of freshly prepared 10 mM arachidonic acid (neutralized with KOH), vortexed and then incubated for 2 minutes at 37° C. The reaction was terminated by the addition of 50 μL of 1 M HCl, vortexed and placed at room temperature. One hundred microliters of a saturated stannous chloride solution (50 mg/mL of 0.1 M HCl) was added and the reaction mixture was allowed to stand at room temperature for at least 5 minutes.
The prostaglandins (PG) produced in the reactions were assayed, after a 2,000-fold dilution, using the Prostaglandin Screening EIA Kit (Cayman Chemical, Ann Arbor, Mich.). The assay-contains an antibody with broad specificity for all the prostaglandin families (PGF, PGE, PGD, and thromboxane B-type) synthesized in the COX-1/COX 2 reactions. The synthesized prostaglandin competes with a PG-tagged acetylcholine esterase tracer for binding to the PG antibody. Binding of synthesized PG lowers the calorimetric development of the Ellman's Reagent (computed as % B/B0). The actual amount of synthesized PG was interpolated from a standard curve using known amounts of supplied prostaglandin E2 (PGE2) (PGE2 concentration vs. % B/B0). The data generated were the mean±standard deviation of triplicate wells in the EIA for a single reaction at a given inhibitor concentration.

[1] = tested on: carrageenan-induced rat paw edema; experiment: Carrageenan-induced rat paw edema test; type: in vivo; conditions: rats dosed intragastrically, paw volume 3 hours after carrageenan
Procedure: The carrageenan-induced rat paw edema test was used to measure antiinflammatory activity. The paw edema test was performed according to the method of Winter et al, Proc. Soc. Exp. Biol. Med. 111: 544–547, 1962. Male Sprague-Dawley rats (200–250 g) were fasted for 24 hours with water ad libitum. The rats were dosed intragastrically with test compounds in a volume of 5 mL/kg. One hour after dosing the paw volume was measured. Then each rat received a subplantar injection of 50 μl of 1% suspension of carrageenan. Three hours later, the paw volume was measured and compared with the initial volume measured […]. The increase in paw volume is presented as the mean±SEM for 5 rats per group. Data were analyzed by performing an ANOVA test followed by a Student-Keuls post hoc test.

[2] = tested on: rat aortic smooth muscle rings; experiment: Relaxation of phenylephrine-contracted rat aortic smooth muscle rings; conditions: rings precontracted with 10 μM phenylephrine
Procedure: Male Sprague-Dawley rats (Charles River Laboratories (Wilmington, Mass.) were euthanized by intraperiton injection of a high dose of sodium pentobarbitone (80–100 mg/kg). The thoracic aorta was rapidly excised and immediately placed in a Petri dish containing warm (37° C.) oxygenated (95% O2 and 5% CO2) Kreb's buffer (composition per millimolar: NaCl (119); KCl (4.69); CaCl2.H2O (2.52); MgSO4.7H2O (0.57); NaHCO3 (25); NaH2PO4.H2O (1.01) and glucose (11.1). Under a stereoscopic dissecting microscope, the aorta was cleaned, freed from adhering fat and connective tissues. The tissue was cut into ring segments, each approximately 2–3 mm in length.
For experiments to measure relaxation of the tissue under various conditions, a stainless steel tissue holder and an U-shaped stainless steel wire were inserted into the lumen of the aortic ring. The tissue holder anchored the ring at the bottom of the organ bath whereas the end of the U-shaped steel wire was tied with fine silk thread so that it connected to the FT-202 transducer. The tissue holder and the steel wire along with the aortic ring were then suspended in a 5-mL double-jacketed temperature-controlled glass organ bath (Radnoti Glass Technology, Inc., Monrovia, Calif.) filled with fresh Kreb's buffer. A mixture of 95% O2 and 5% CO2 was bubbled through a porous sintered disc at the bottom of the bath. The rings were given an initial resting tension of 1.5 g and the preparation was allowed to equilibrate at the initial tension for about 90 minutes. During this equilibration period, the bath fluid was changed every 15 minutes and replaced with fresh prewarmed (37° C.) Kreb's buffer. The isometric tension of the aortic muscle at rest and its response to different stimuli were recorded on a Power Macintosh 6100 computer via a MacLab 8/S computer interface (CB Sciences, Inc, Milford, Mass.) after an initial amplification through a low-noise ETH-400 bioamplifier (CB Sciences, Inc, Milford, Mass.). Contractile responsiveness of the tissue strips was established with 10 μM phenylephrine and the strips were incubated with the drug for 20 minutes to establish a steady level of contraction. To test the relaxation effects, test compounds were added to the phenylephrine-precontracted strips in the tissue bath at cumulative concentrations of 0.1 μM to 0.1 mM. Concentration of test compounds was increased only after relaxation at the previous concentration had reached a plateau level.

For `NS(=O)(=O)c1ccc(-c2c(-c3ccccc3)noc2CO[N+](=O)[O-])cc1` [Example 2b, 4-(5-((Nitrooxy)methyl)-3-phenylisoxazol-4-yl)benzenesulfonamide], the inhibition at 100 µM (ovine COX-1; Ovine COX-1 (footnote a), at 100 μM) was 0%, the IC50 (ovine COX-1; ovine COX-1) was > 300 µM and the “paw volume (antiinflammatory activity)” value [1] was “reduced the paw volume”. For the same molecule, the “relaxation of aortic smooth muscle ring” value ([2]; 100 nM to 100 μM test compound) was “induced the relaxation of the aortic ring” and the “relaxation compared with reference NO donor (ISDN or GSNO)” value ([2]; comparator as in the value) was “comparable to that obtained with ISDN”.
